Reference: US11591342B2, “Heterocyclic compound, application thereof and pharmaceutical composition comprising same” (SUZHOU SINOVENT PHARMACEUTICALS CO., LTD., priority 2018, dated 2023)
pIC50: −log10 of the molar value.

Columns and labels:
Autotaxin (ATX) = Autotaxin (ATX) (Homo sapiens (Human), UniProt Q13822); experiment: ATX bioactivity assay (Amplex Red / choline oxidase / HRP fluorescence, LPC 16:0 substrate); type: biochemical; details: 30 min room temperature
Experimental: Effect Example 1 Bioactivity Assay
Preparation and Treatment
Stock Solution Preparation
A 10 mM DMSO stock solution was formulated for each compound. A 30 mM DMSO stock solution was formulated for positive control HA130.
The DMSO stock solutions were stored at room temperature in a desiccator for a short period of time or at −20° C. for a long period of time.
All compounds were serially 3-fold diluted in DMSO from 10 μM to the 10th concentration.
A 1000× positive control (10 mM, HA130) and a 1000× negative control (100% DMSO) were prepared.
The plates were shaken for 5 min.
Preparation of 1× Reaction Buffer:
5× reaction buffer and cold water were mixed well in a volume ratio of 1:4.
Preparation of 20 U/mL Choline Oxidase Stock Solution:
1 tube of choline oxide in a kit was dissolved in 1× reaction buffer. The aliquots were frozen at −20° C.
Preparation of 200 U/mL Horseradish Peroxidase (HRP) Stock Solution:
1 tube of HRP in a kit was dissolved in 1 mL of 1× reaction buffer. The aliquots were frozen at −20° C.
Preparation of 20 mM Amplex® Red Reagent (for Detection) Stock Solution
Amplex Red reagent and DMSO were equilibrated at room temperature. 1 tube of Amplex Red reagent in a kit was dissolved in 200 μL of DMSO.
a) 2×ATX ([…]), 2×HRP ([…]), 2× choline oxidase (0.2 U/mL) were added to 1× reaction buffer.
b) 20 μL of the reaction mixture was added to the plate (PE, 6007270) (refer to step a).
c) 40 nL of diluent was added to the plate using Echo (refer to “Preparation”).
d) 2×LPC (16:0) (60 mM) and 2× Amplex® Red ([…]) were prepared using 1× reaction buffer.
e) 20 μL of the mixture was added to the plate (refer to step d).
f) The plate was shaken for 30 s and allowed to stand at room temperature for 30 min.
g) The plate was examined using Envision, and the procedure was as follows: Excitation at 530 nm; and Emission at 590 nm.
Formula for Calculating % Inhibition (Percent Inhibition Rate) as Follows:
FLU: Fluorescence (fluorescence reading)
FLUpositive: Average fluorescence value in positive control wells (10 μM HA130) in the plate.
FLUvehicle: Average fluorescence value in negative control wells (0.1% DMSO) in the plate.
Calculation of IC50 and Dose-Response Curve:
IC50 of the compounds was calculated via a non-linear regression line (dose-variable slope) fitted using % inhibition and log of compound concentration. The software used was Graphpad 5.0. Y=Bottom+(Top−Bottom)/(1+10^((Log IC50−X)×Hill Slope))
X: log of inhibitor concentration

CYP3A4 = CYP3A4 (Homo sapiens (Human), UniProt P08684); experiment: Time-dependent inhibition of CYP3A4 (TDI assay, human liver microsomes); type: in vitro ADME; details: for CYP3A4 TDI % @ 10 μM: human liver microsomes, Midazolam substrate, 30 min with NADPH vs 0 min; for time-dependent inhibition on CYP3A4 (conclusion): conclusion drawn from Table 3, 10 μM
Sequence of CYP3A4 (P08684 whole entry): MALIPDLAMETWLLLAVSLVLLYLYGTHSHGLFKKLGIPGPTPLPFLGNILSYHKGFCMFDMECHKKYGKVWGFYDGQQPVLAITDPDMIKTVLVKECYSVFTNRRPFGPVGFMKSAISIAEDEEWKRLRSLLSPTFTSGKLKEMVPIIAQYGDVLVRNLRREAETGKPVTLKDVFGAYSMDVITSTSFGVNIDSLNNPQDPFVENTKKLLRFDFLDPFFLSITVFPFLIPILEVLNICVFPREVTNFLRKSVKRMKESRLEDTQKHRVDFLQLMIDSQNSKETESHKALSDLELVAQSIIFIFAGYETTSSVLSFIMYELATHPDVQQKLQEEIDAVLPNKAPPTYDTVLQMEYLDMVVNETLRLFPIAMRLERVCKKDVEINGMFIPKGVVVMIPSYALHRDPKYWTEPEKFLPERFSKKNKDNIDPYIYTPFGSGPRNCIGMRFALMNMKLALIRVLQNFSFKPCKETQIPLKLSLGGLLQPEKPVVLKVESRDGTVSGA
Experimental: Effect Example 3. Time-Dependent Inhibition of CYP3A4
1. Preheating potassium phosphate buffer (K-buffer), pH 7.4: 100 mM potassium phosphate buffer (K-buffer) was prepared by mixing 9.5 mL of solution A with 40.5 mL of solution B, diluting to 500 mL with ultrapure water, and then adjusting to pH 7.4 with KOH or H3PO4, wherein the solution A (1M potassium dihydrogenphosphate) was prepared by dissolving 136.5 g of potassium dihydrogenphosphate in […] of ultrapure water.
2. Preparation of human liver microsome suspension (1.3 mg/mL, 1.3×, stock: 20 mg/mL): 100 μL of human liver microsome suspension (20 mg/mL) was added into […] of K-buffer.
3. Preparation of NADPH solution (4.167 mg/mL, 5 mM): 8.3 mg of NADPH was added into 2 mL of buffer.
4. Preparation of substrate solution (1.5× final): 1.5 μL of 10 mM Midazolam was added to 998.5 μL of K-buffer to yield the substrate mixture.
5. Preparation of 100× test compound, reference and blank control solutions: 3 μL of 10 mM stock solution of test compound was added to 27 μL of ACN; 3 μL of positive control stock solution was added to 27 μL of ACN; and 3 μL of DMSO was added to 27 μL of ACN to serve as blank control.
6. Primary preheating system: An NADPH-free system for 0 min incubation: 78 μL of 1.3× human liver microsome solution (step 2) was mixed with 1 μL of the 100× stock solutions of positive control, test compound, or blank control (step 5); A system containing NADPH for 30 min incubation: 78 μL of 1.3× human liver microsome solution (step 2) was mixed with 1 μL of the 100× stock solutions of positive control, test compound, or blank control (step 5).
7. Secondary preheating system: 150 μL of the substrate solution prepared in step 4 was added into a deep well plate together with the NADPH solution from step 3
8. The samples were preheated for 10 min in a 37° C. water bath.
9. Reaction procedure: (1) reaction for 0 min: 21 μL of K-buffer was added to the primary preheating system and mixed well without incubation; 20 μL of the mixture was immediately transferred into the plate of the secondary preheating system; after mixing, the secondary system was incubated in a 37° C. water bath for 15 min, and 60 μL of the reaction mixture was added into 120 μL of acetonitrile containing internal standard to terminate the reaction; and (2) reaction for 30 min: 21 μL of NADPH was added into the primary preheating system for a 30-min incubation after mixing; 20 μL of the mixture was added into the secondary preheating system prior to mixing; the mixture was incubated in a 37° C. water bath for 15 min, and 60 μL of the reaction mixture was added into 120 μL of acetonitrile containing internal standard to terminate the reaction.
10. After termination, the samples were shaken on a shaker at 600 rpm for 10 min and centrifuged at 5594 g for 15 min prior to LC-MS/MS analysis.

LPA18:2 in mouse plasma = experiment: Inhibition of LPA in mouse plasma (plasma LPA18:2 assay, LC-MS/MS); type: biochemical, CD1 mice; details: fresh CD1 mouse plasma, LPA18:2, 37° C. for 120 min
Experimental: Effect Example 2. Inhibition of LPA in Mouse Plasma by Compounds
20 mM stock solutions of the compounds were prepared with DMSO and then diluted to 1 mM, which was subjected to a serial 3-fold dilution to yield 10 working solutions.
Collection of Fresh Mouse Plasma:
CD1 mice were euthanized by CO2 inhalation. Approximately 1 mL of whole blood was taken by cardiac puncture, with EDTA-K2 for anticoagulation. The blood was centrifuged at 3220 g for 10 min at 4° C. for plasma collection.
Reactions were performed in a 96-well plate, and the samples were tested in duplicate. 1 μL of each working solution was added to 100 μL of plasma, with the final concentrations of […]. 1 μL of DMSO was added to plasma to serve as blank. The samples were incubated in a water bath at 37° C. for 120 min, and 600 μL of 10 μM tolbutamide in methanol was added to terminate the reaction. Tolbutamide also served as an internal standard. After 5 min of vortex mixing, the samples were centrifuged at 3220 g for 45 min at 4° C. to precipitate the protein. 100 μL of the supernatant was transferred to a new plate, diluted with water based on LC-MS response and peak shapes, mixed well and analyzed by LC-MS/MS.
LPA18:2 was quantified using peak area ratio (LPA18:2/internal standard), requiring no standard curve. For test compounds of different concentrations, LPA data was represented by a percentage decrease of LPA: 100-[((LPA peak area ratio of compound)/(LPA peak area ratio of control))×100]. IC50 was calculated using Graphpad Prism 6.0 software.

Row | SMILES | pIC50 (Autotaxin (ATX)) | CYP3A4 TDI % @ 10 μM (CYP3A4) | time-dependent inhibition on CYP3A4 (conclusion) (CYP3A4) | pIC50 (LPA18:2 in mouse plasma)
1 | CCc1oc2c(F)cc(N3CCN(CC(=O)N4CC(O)C4)CC3)cc2c1N(C)c1nc(-c2ccc(F)cc2)c(C#N)s1 [Compound S-0024, 2-((2-ethyl-7-fluoro-5-(4-(2-(3-hydroxyazetidin-1-yl)-2-oxoethyl)piperazin-1-yl)benzofuran-3-yl)(methyl)amino)-4-(4-fluorophenyl)thiazole-5-carbonitrile] | 6.73 | 4.8% | no time-dependent inhibition on CYP3A4 | –
2 | CCN(c1nc(-c2ccc(F)cc2)cs1)c1c2cc(N3CCN(CC(=O)N4CC(O)C4)CC3)cc(F)c2nn1CC [Compound S-0149, 2-(4-(2-ethyl-3-(ethyl(4-(4-fluorophenyl)thiazol-2-yl)amino)-7-fluoro-2H-indazol-5-yl)piperazin-1-yl)-1-(3-hydroxyazetidin-1-yl)ethanone] | – | – | – | 6.80
3 | CCn1nc2c(F)cc(N3CCN(CC(=O)N4CC(O)C4)CC3)cc2c1N(C)c1nc(-c2ccc(F)c(F)c2)c(C#N)s1 [Compound S-0027, 4-(3,4-difluorophenyl)-2-((2-ethyl-7-fluoro-5-(4-(2-(3-hydroxyazetidin-1-yl)-2-oxoethyl)piperazin-1-yl)-2H-indazol-3-yl)(methyl)amino) thiazole-5-carbonitrile] | 6.78 | 42.12% | weak time-dependent inhibition on CYP3A4 | –
4 | CCc1oc2cnc(N3CCN(CC(=O)N4CC(O)C4)CC3)cc2c1N(C)c1nc(-c2ccc(F)cc2)c(C#N)s1 [Compound S-0046, 2-((2-ethyl-5-(4-(2-(3-hydroxyazetidin-1-yl)-2-oxoethyl)piperazin-1-yl)furo[2,3-c]pyridin-3-yl)(methyl)amino)-4-(4-fluorophenyl)thiazole-5-carbonitrile] | < 5.00 | 10.38% | no time-dependent inhibition on CYP3A4 | –
5 | CCn1nc2c(C)cc(N3CCN(CC(=O)N4CC(O)C4)CC3)nc2c1N(CC(F)(F)F)c1nc(-c2ccc(F)cc2)c(C#N)s1 [Compound S-0140, 2-((2-ethyl-5-(4-(2-(3-hydroxyazetidin-1-yl)-2-oxoethyl)piperazin-1-yl)-7-methyl-2H-pyrazolo[4,3-b]pyridin-3-yl)(2,2,2-trifluoroethyl)amino)-4-(4-fluorophenyl)thiazole-5-carbonitrile] | 6.49 | – | – | –
6 | CCn1nc2c(F)cc(N3CCN(CC(=O)N4CC(O)C4)CC3)cc2c1N(C)c1ccc(C#N)c(-c2ccc(F)cc2)n1 [Compound S-0030, 6-((2-ethyl-7-fluoro-5-(4-(2-(3-hydroxyazetidin-1-yl)-2-oxoethyl)piperazin-1-yl)-2H-indazol-3-yl)(methyl)amino)-2-(4-fluorophenyl)nicotinonitrile] | 6.39 | – | – | –
7 | CCc1oc2ncc(N3CCN(CC(=O)N4CC(O)C4)CC3)cc2c1N(C)c1nc(-c2ccc(F)cc2)c(C#N)s1 [Compound S-0045, 2-((2-ethyl-5-(4-(2-(3-hydroxyazetidin-1-yl)-2-oxoethyl)piperazin-1-yl)furo[2,3-b]pyridin-3-yl)(methyl)amino)-4-(4-fluorophenyl)thiazole-5-carbonitrile] | 6.58 | 2.68% | no time-dependent inhibition on CYP3A4 | –
8 | CCc1nn2ccc(N3CCN(CC(=O)N4CC(O)C4)C(=O)C3)nc2c1N(C)c1nc(-c2ccc(F)cc2)c(C#N)s1 [Compound S-0104CP, 2-((2-ethyl-5-(4-(2-(3-hydroxyazetidin-1-yl)-2-oxoethyl)-3-oxopiperazin-1-yl)pyrazolo[1,5-a]pyrimidin-3-yl)(methyl)amino)-4-(4-fluorophenyl)thiazole-5-carbonitrile] | 6.59 | – | – | –
9 | CCc1nn2c(C)cc(N3CCN(CC(=O)N4CC(O)C4)CC3)nc2c1N(C)c1nc(-c2ccc(F)c(F)c2)c(C#N)s1 [Compound S-0068, 4-(3,4-difluorophenyl)-2-((2-ethyl-5-(4-(2-(3-hydroxyazetidin-1-yl)-2-oxoethyl)piperazin-1-yl)-7-methylpyrazolo[1,5-a]pyrimidin-3-yl)(methyl)amino) thiazole-5-carbonitrile] | 6.97 | – | – | –
10 | CCc1nn2c(C)cc(N3CCN(CC(=O)N4CC(O)C4)C[C@H]3C)nc2c1N(C)c1nc(-c2ccc(F)cc2)c(C#N)s1 [Compound S-0070, (R)-2-((2-ethyl-5-(4-(2-(3-hydroxyazetidin-1-yl)-2-oxoethyl)-2-methylpiperazine-1-yl)-7-methylpyrazolo[1,5-a]pyrimidin-3-yl)(methyl)amino)-4-(4-fluorophenyl)thiazole-5-carbonitrile] | 7.44 | – | – | –
11 | CCN(c1nc(-c2ccc(F)cc2)cs1)c1c2nc(N3CCN(CC(=O)N4CC(O)C4)CC3)cc(C)c2nn1CC [Compound S-0151, 2-(4-(2-ethyl-3-(ethyl(4-(4-fluorophenyl)thiazol-2-yl)amino)-7-methyl-2H-pyrazolo[4,3-b]pyridin-5-yl)piperazin-1-yl)-1-(3-hydroxyazetidin-1-yl) ethanone] | – | – | – | 5.85
